Data on one compound can be found in patent US6846496B1, “Treatment of osteoporosis” (Orion Corporation, priority 1999, dated 2005).

Where “and” joins values, the source holds several entries; their conditions need not be identical. Equal values may be shown once.

The experiment can be described thus: Comparative clinical study: bone mineral density by dual-energy X-ray absorptiometry at vertebrae (L2-L4) and femoral neck. Type of experiment: in vivo, postmenopausal women. As to conditions: 48 months; for increase in bone mineral density in the vertebrae (mean percentage change) / increase in bone mineral density in the femoral neck: all subjects; for increase in bone mineral density in the femoral neck (percentage change) / increase in bone mineral density in the vertebrae (mean change from baseline): osteopenic/osteoporotic subjects; for mean change from baseline in BMD in vertebrae: subjects with normal BMD at baseline. The text has this: The subjects used in the study were 419 postmenopausal women, aged 45 to 65 years. Eligible women had to be at least 3 years postmenopausal with normal gynecological findings, an intact uterus and a body mass index of 30 or less. Major medical exclusion criteria included endometrial hyperplasia and pathological mammography findings, prior hormone-dependent malignancies, severe thyroid diseases, and other criteria typical for HRT studies. Excessive smokers and alcohol abusers were excluded. Otherwise the women were not required to change their daily diet or other lifestyle habits for the study period.
Subjects were randomly assigned to six treatment groups to receive one tablet daily containing one of the following dose combinations: 1 mg or 2 mg of estradiolvalerate (E2V) combined to 2.5 mg or 5 mg of medroxyprogestrone acetate (MPA) (Indivina®, Orion Corporation, Espoo, Finland).
Groups changing from 1 mg E2V to 2 mg E2V irrespective of the MPA (Group I and II) were pooled together. Groups receiving 1 mg of E2V throughout the study irrespective of the MPA dose (Group V and VI) were pooled together. Also groups receiving 2 mg of E2V throughout the study irrespective of the MPA dose (Group III and IV) were pooled together. Pooling was considered justified since MPA is not expected to affect the response of estrogen on bone mineral density (BMD).
The bone mineral densities at the vertebrae and the hip were measured using dual-energy X-ray absorptiometry (DPX) at baseline, 6-, 12-, 24, 36- and 48-month follow-up visits, and at premature discontinuation. The BMD from the hip was measured by three separate measurements at the femur neck, Ward's triangle, major trochanter and BMD from the vertebrae was measured at L2-L4. In addition, the area and bone mineral content (BMC) of vertebrae L2-L4 were determined.
Results were further analysed to compare the effect varying dosages on BMD in groups that had either normal, osteopenic or osteoporotic BMD value at baseline. Subjects were classified as osteopenic if the BMD was 0.90 to 1.08 g/cm^2 in vertebrae (L2-L4) and 0.68 to 0.86 g/cm^2 in femoral neck (corresponds to T score between −1 and −2.5 in Finnish population). BMD was regarded as normal if the values were above 1.08 g/cm^2 in vertebrae and above 0.86 g/cm^2 in femoral neck. Values below 0.90 g/cm^2 in vertebrae and below 0.68 /cm^2 in femoral neck were considered as osteoporotic.

[1] abbreviates: daily 1 mg E2V first 6 months then 2 mg E2V.

Consider `CCCCC(=O)O[C@H]1CC[C@H]2[C@@H]3CCc4cc(O)ccc4[C@H]3CC[C@]12C` [E2V, estradiol valerate], for which the “increase in bone mineral density in the vertebrae (mean percentage change)” value (from here on “increase … (mean percentage change)”) (daily 1 mg E2V first 6 months then 2 mg E2V (Groups I+II pooled, with MPA)) was 8.9%; the “increase … (mean percentage change)” value (daily 1 mg E2V whole term (Groups V+VI pooled, with MPA)) was determined as 6.2%; the “increase … (mean percentage change)” value (daily 2 mg E2V whole term (Groups III+IV pooled, with MPA)) is given as 7.4%. For the same compound, the “increase in bone mineral density in the femoral neck” value is 4.2% and 4.3% under setting [1]; 2.9% (daily 1 mg E2V whole term); 2.9% (daily 2 mg E2V whole term). The “increase in bone mineral density in the femoral neck (percentage change)” value came to 6.4% under setting [1], 3.8% (daily 1 mg E2V whole term) and 3.5% (daily 2 mg E2V whole term). Besides, the “increase in bone mineral density in the vertebrae (mean change from baseline)” value is, setting by setting: under setting [1], 9.4%; (daily 1 mg E2V whole term) 7.7%; (daily 2 mg E2V whole term) 7.3%. In addition, the “mean change from baseline in BMD in vertebrae” value worked out at 8.3% under setting [1], 4.7% (daily 1 mg E2V whole term) and 7.5% (daily 2 mg E2V whole term).
